# Measured values published in patent US8618110B2, “Compositions and methods for apoptosis modulators” (VM Discovery Inc., priority 2007, dated 2013).
# Assays:
# [1] = system: human tumor cell lines; assay: MTT proliferation assay, human tumor cell lines; type: cell-based; conditions: H23, H460, DU-145; IC50 comparison
# Method: (§1) Human tumor cell lines were obtained from the American Type Culture Collection, the National Cancer Institute or from the originator as a kind gift. All cells were grown in RPMI 1640 (Invitrogen) medium containing 10% fetal bovine serum and 2 mM L-glutamine.
# (§2) Logarithmically growing cells cultured in T75 flasks (Falcon) were harvested and inoculated into 96 well microtiter plates in 100 μL at plating densities ranging from 2,000 to 5,000 cells/well depending on the doubling time of individual cell lines. After cell inoculation, the microtiter plates are incubated at 37° C., 5% CO2, 95% air and 100% relative humidity for 24 h prior to addition of drug.
# (§3) After 24 h, one plate of each cell line is developed with MTT (3-4,5-Dimethylthiazol-2-yl)-2,5-diphenyltetrazolium bromide, yellow), which is reduced to purple formazan in the mitochondria of living cells. […] The absorbance of this colored solution can be quantified by measuring at a certain wavelength (usually between 500 and 600 nm) by a spectrophotometer. […] The d0 growth value for each cell line is later deducted from each of the readouts at termination of the experiment. Essentially the final readouts are normalized for baseline growth, which enables us direct deduction of growth inhibition parameters from the graphed data. […]
# (§4) Two independent experiments were conducted and the IC50 concentrations calculated plus/minus standard deviation.
# [2] = system: H23 (lung) tumor cell line; assay: MTT proliferation assay, H23; type: cell-based, human; conditions: FIG. 1A
# Method: as §1, §2, §3, §4
# [3] = system: H460 (lung) tumor cell line; assay: MTT proliferation assay, H460; type: cell-based, human; conditions: FIG. 1B
# Method: as §1, §2, §3, §4
# [4] = system: DU-145 (prostate) tumor cell line; assay: MTT proliferation assay, DU-145; type: cell-based, human; conditions: FIG. 1C
# Method: as §1, §2, §3, §4
# [5] = system: SF268 (glioblastoma) tumor cell line; assay: MTT proliferation assay, SF268; type: cell-based; conditions: Homo sapiens, SF-268, 120 h, 5 days
# Method: as §1, §2, §3, §4
SMILES,potency compared with VMD in the same cell lines [1],IC50 values (range in words) [2],IC50 values (range in words) [3],IC50 values (range in words) [4],IC50 [5] [nM]
CN(C)CC[C@H](CSc1ccccc1)Nc1ccc(S(=O)(=O)NC(=O)c2ccc(N3CCN(Cc4ccccc4-c4ccc(Cl)cc4)CC3)cc2)cc1[N+](=O)[O-] [Abt-737],at least two-order of magnitude less potent,high μM range,high μM range,high μM range,–
O=C(O)c1ccc(N2CCN(CCCn3c4c(n[n+]3[O-])C(=O)c3ccccc3C4=O)CC2)cc1 [Compound 101],–,–,–,–,330
